These are literature values, as cited in patent US5216015A, “Compounds having hypocholesterolemic properties” (priority 1991, dated 1993).

The test system of one data set is sterol synthesis. Conditions: Kandutsch, et al., J. Biol. Chem. 248 (24), 8408 (1974); cited from earlier work.
Consider `CC(C)CCC[C@@H](C)[C@H]1CC[C@H]2[C@@H]3[C@H](O)C=C4C[C@@H](O)CC[C@]4(C)[C@H]3CC[C@]12C` [7α-hydroxycholesterol], for which the “inhibition of sterol synthesis” value is reported as “inhibit sterol synthesis”. Turning to `CC(C)CCC[C@@H](C)[C@H]1CC[C@H]2[C@@H]3[C@@H](O)C=C4C[C@@H](O)CC[C@]4(C)[C@H]3CC[C@]12C` [7β-hydroxycholesterol], the “inhibition of sterol synthesis” value is listed as “inhibit sterol synthesis”.

Still in this data set, the particulars now being: Schroepfer, et al., J. Biol. Chem. 252 (24), 8975 (1977); cited from earlier work.
For the compound `CC(C)CCC[C@@H](C)[C@H]1C[C@@H](O)C2=C3CC[C@H]4C[C@@H](O)CC[C@]4(C)[C@H]3CC[C@@]21C` [5α-cholest-8(14)-en-3β,15β-diol], the “inhibition of sterol synthesis” value is “potent inhibitors of sterol synthesis”. With `CO[C@H]1CC[C@@]2(C)[C@@H](CC=C3[C@@H]2CC[C@]2(C)[C@@H]([C@H](C)CCCC(C)C)C[C@@H](O)[C@@]32C)C1` [3β-methoxy-14α-methyl-5α-cholest-7-en-15β-ol], the “inhibition of sterol synthesis” value is given as “potent inhibitors of sterol synthesis”. As to `CC(C)CCC[C@@H](C)[C@H]1CC(=O)[C@@]2(C)C3=CC[C@H]4C[C@@H](O)CC[C@]4(C)[C@H]3CC[C@]12C` [14α-methyl-5α-cholest-7-en-3β-ol-15-one], the “inhibition of sterol synthesis” value was “potent inhibitors of sterol synthesis”. Regarding `CC(C)CCC[C@@H](C)[C@H]1C[C@H](O)C2=C3CC[C@H]4C[C@@H](O)CC[C@]4(C)[C@H]3CC[C@@]21C` [5α-cholest-8(14)-en-3β,15α-diol], the “inhibition of sterol synthesis” value is recorded as “potent inhibitors of sterol synthesis”. As to `CC(C)CCC[C@@H](C)[C@H]1CC(O)C2=C3C(O)C[C@H]4C[C@@H](O)CC[C@]4(C)[C@H]3CC[C@@]21C` (stereo partly drawn) [5α-cholest-8(14)-en-3β,7.xi.,15.xi.-triol], the “inhibition of sterol synthesis” value is listed as “potent inhibitors of sterol synthesis”. Turning to `CC(C)CCC[C@@H](C)[C@H]1C[C@@H](O)[C@@]2(C)C3=CC[C@H]4C[C@@H](O)CC[C@]4(C)[C@H]3CC[C@]12C` [14α-methyl-5α-cholest-7-en-3β,15β-diol], the “inhibition of sterol synthesis” value was “potent inhibitors of sterol synthesis”. In the case of `CC(C)CCC[C@@H](C)[C@H]1C[C@H](O)[C@@]2(C)C3=CC[C@H]4C[C@@H](O)CC[C@]4(C)[C@H]3CC[C@]12C` [14α-methyl-5α-cholest-7-en-3β,15α-diol], the “inhibition of sterol synthesis” value is “potent inhibitors of sterol synthesis”.

`CC(C)CCC[C@@H](C)[C@H]1C[C@H](O)[C@@H]2C3=CC[C@H]4C[C@@H](O)CC[C@]4(C)[C@H]3CC[C@]12C` [5α,14β-cholest-7-en-3β,15α-diol]: the “inhibition of sterol synthesis” value is given as “potent inhibitors of sterol synthesis”.

For the compound `CC(C)CCC[C@@H](C)[C@H]1C[C@@H](O)[C@@H]2C3=CC[C@H]4C[C@@H](O)CC[C@]4(C)[C@H]3CC[C@]12C` [5α,14β-cholest-7-en-3β,15β-diol], the “inhibition of sterol synthesis” value is on record as “potent inhibitors of sterol synthesis”. For `CO[C@H]1CC[C@@]2(C)[C@@H](CC=C3[C@@H]2CC[C@]2(C)[C@@H]([C@H](C)CCCC(C)C)C[C@H](O)[C@@]32C)C1` [3β-methoxy-14α-methyl-5α-cholest-7-en-15α-ol], the “inhibition of sterol synthesis” value was “potent inhibitors of sterol synthesis”.
